# Measurements published in patent US20120219615A1, “Therapeutic Use of a TLR Agonist and Combination Therapy” (The Trustees of the University of Pennsylvania, priority 2010, published 2012).
# System: OVCAR5 cells
# Test: OVCAR5 apoptosis by annexin-V and 7AAD staining
# Assay type: cell-based, human
# Description: Cell viability Annexin V/7AAD: To detect apoptosis, tumor cells were stained with annexin V/7AAD (BD Pharmingen #559763). Apoptotic cells were analyzed by flow cytometry according to the manufacturer's protocol. Briefly, OVCAR5 cells grown and subjected to different treatments were collected and pelleted at 1200 rpm and then washed twice with ice-cold PBS and re-suspended in a binding buffer (Pharmingen #51-66121 E) at a concentration of 1×10^6 cells/mL; 100 μL of the solution (1×10^5 cells) was transferred to each of two 5-mL culture tubes. Five μL of annexin V-PE (Pharmingen #51-65875Y) and added to each 100 μL solution, gently vortexed, incubated for 15 min at room temperature in the dark, washed with PBS, incubated with 5 μL of 7AAD (BD Pharmingen #51-68981E) for 10 minutes, and analyzed by FACS within 1 h.
# Besides tumor-specific CTLs, TLR8 activation may also invoke innate anti-tumor responses, including the release of soluble mediators such as members of the TNF family, which can act directly on tumor cells to induce apoptosis. […] Expression of the TNFα receptor 1 (TNFR1) in OVCAR5 cells was tested and documented by Western blot (FIG. 5C). During the sensitivity test of OVCAR5 cells to TNFα, cells were incubated for 24 hours with 20 ng/ml of TNFα, a dose that exerts direct cytotoxic effects. […]
substance,measurement,setting,value
TNFα,TNFα-mediated apoptosis of OVCAR5 cells,"20 ng/ml TNFα, 24 hours",resistant to TNFα-mediated apoptosis
same,apoptosis of OVCAR5 cells,"PLD 1 μg/mL 24 h pre-incubation, then TNFα 20 ng/ml 12 h, or control media",minimal apoptosis
